Laboratory results reported in PubChem BioAssay AID1963439 (Molecular Pharmacology Branch, DTP, NCI, 2024).
“And” between values parts separate entries of the source, which are not always exact repeats. Equal values may be shown once.

System: NCI-H196 complex spheroids with HUVEC/MSC, growth % T/C
Assay: Anticancer human tumor NCI-H196 cell line growth inhibition [Asc];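 note: spheroids exposed to compound for 7 days before measurement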;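 for viability, T/C: 100% = DMSO vehicle control wells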
Details: for viability, T/C: stronger effect = lower value
Summary of the method: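 Spheroid model: tumor line + HUVEC + hMSC. Single agents and combinations; top conc. at/near clinical Cmax (10 microM if undetermined), half-log dilutions. DMSO stocks at 800-fold test concentration.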

[1] = curve of first compound, second compound 0.01 µM
[2] = curve of first compound, second compound 0.0316 µM
[3] = curve of first compound, second compound 0.1 µM
[4] = curve of first compound, second compound 0.316 µM
[5] = curve of first compound, second compound 1 µM

O=C(c1ccc(F)c(F)c1Nc1ccc(I)cc1F)N1CC(O)([C@@H]2CCCCN2)C1 + CCN1C(C(=O)NC23CCC(C(=O)O)(CC2)CC3)C(c2cccc(Cl)c2F)C2(C(=O)Nc3cc(Cl)ccc32)C12CCCCC2
IC50 (curve of first compound, second compound 0.03 µM): > 1000 nM
IC50 (curve of first compound, second compound 0.0949 µM): > 1000 nM
IC50 (curve of first compound, second compound 0.3 µM): > 1000 nM
IC50 (curve of first compound, second compound 0.949 µM): > 1000 nM
IC50 (curve of first compound, second compound 3 µM): > 1000 nM
viability, T/C (second compound 0.03 µM, first compound 0.00316 µM): 107%
viability, T/C (second compound 0.03 µM, first compound 0.01 µM): 110%
viability, T/C (second compound 0.03 µM, first compound 0.0316 µM): 101%
viability, T/C (second compound 0.03 µM, first compound 0.1 µM): 111%
viability, T/C (second compound 0.03 µM, first compound 0.316 µM): 123%
viability, T/C (second compound 0.03 µM, first compound 1 µM): 157%
viability, T/C (second compound 0.0949 µM, first compound 0.00316 µM): 105%
viability, T/C (second compound 0.0949 µM, first compound 0.01 µM): 121%
viability, T/C (second compound 0.0949 µM, first compound 0.0316 µM): 108%
viability, T/C (second compound 0.0949 µM, first compound 0.1 µM): 112%
viability, T/C (second compound 0.0949 µM, first compound 0.316 µM): 127%
viability, T/C (second compound 0.0949 µM, first compound 1 µM): 131%
viability, T/C (second compound 0.3 µM, first compound 0.00316 µM): 104%
viability, T/C (second compound 0.3 µM, first compound 0.01 µM): 114%
viability, T/C (second compound 0.3 µM, first compound 0.0316 µM): 123%
viability, T/C (second compound 0.3 µM, first compound 0.1 µM): 115%
viability, T/C (second compound 0.3 µM, first compound 0.316 µM): 125%
viability, T/C (second compound 0.3 µM, first compound 1 µM): 122%
viability, T/C (second compound 0.949 µM, first compound 0.00316 µM): 115%
viability, T/C (second compound 0.949 µM, first compound 0.01 µM): 120%
viability, T/C (second compound 0.949 µM, first compound 0.0316 µM): 125%
viability, T/C (second compound 0.949 µM, first compound 0.1 µM): 120%
viability, T/C (second compound 0.949 µM, first compound 0.316 µM): 145%
viability, T/C (second compound 0.949 µM, first compound 1 µM): 144%
viability, T/C (second compound 3 µM, first compound 0.00316 µM): 124%
viability, T/C (second compound 3 µM, first compound 0.01 µM): 123%
viability, T/C (second compound 3 µM, first compound 0.0316 µM): 126%
viability, T/C (second compound 3 µM, first compound 0.1 µM): 121%
viability, T/C (second compound 3 µM, first compound 0.316 µM): 136%
viability, T/C (second compound 3 µM, first compound 1 µM): 154%

NC1CCC(NC2CC2c2ccccc2)CC1 (stereo not given)
viability, T/C (compound 0.000316 µM): 103% and 108% and 100%
viability, T/C (compound 0.001 µM): 93.8% and 106% and 108%
viability, T/C (compound 0.00316 µM): 108% (2×) and 97.2%
viability, T/C (compound 0.01 µM): 93% and 98.4% and 103%
viability, T/C (compound 0.0316 µM): 99.4% and 105% and 114%
viability, T/C (compound 0.1 µM): 92.6% and 112% and 92.1%
IC50 (curve of compound): > 100 nM

CCN1CCN(Cc2ccc(Nc3ncc(F)c(-c4cc(F)c5nc(C)n(C(C)C)c5c4)n3)nc2)CC1
viability, T/C (compound 0.00316 µM): 106% and 104% and 96.7%
viability, T/C (compound 0.01 µM): 107% and 101% and 105%
viability, T/C (compound 0.0316 µM): 112% and 95.9% and 98.3%
viability, T/C (compound 0.1 µM): 103% and 110% and 106%
viability, T/C (compound 0.316 µM): 108% and 113% and 112%
viability, T/C (compound 1 µM): 120% and 116% and 119%
IC50 (curve of compound): > 1000 nM

Cc1nc(N2CCC3(CC2)COC(C)C3N)c(CO)nc1Sc1ccnc(N)c1Cl (stereo not given) + CNC(C)C(=O)NC1CN(S(=O)(=O)c2cccc(S(=O)(=O)N3CCC4CCC(C(=O)NC(c5ccccc5)c5ccccc5)N4C(=O)C(NC(=O)C(C)NC)C3)c2)CCC2CCC(C(=O)NC(c3ccccc3)c3ccccc3)N2C1=O
IC50 [1]: < 9.49 nM
IC50 [2]: < 9.49 nM
IC50 [3]: < 9.49 nM
IC50 [4]: < 9.49 nM
IC50 [5]: < 9.49 nM
viability, T/C (second compound 0.01 µM, first compound 0.00949 µM): 11%
viability, T/C (second compound 0.01 µM, first compound 0.03 µM): 7.94%
viability, T/C (second compound 0.01 µM, first compound 0.0949 µM): 5.15%
viability, T/C (second compound 0.01 µM, first compound 0.3 µM): 6.8%
viability, T/C (second compound 0.01 µM, first compound 0.949 µM): 6.64%
viability, T/C (second compound 0.01 µM, first compound 3 µM): 6.64%
viability, T/C (second compound 0.0316 µM, first compound 0.00949 µM): 4.39%
viability, T/C (second compound 0.0316 µM, first compound 0.03 µM): 3.45%
viability, T/C (second compound 0.0316 µM, first compound 0.0949 µM): 4.36%
viability, T/C (second compound 0.0316 µM, first compound 0.3 µM): 3.89%
viability, T/C (second compound 0.0316 µM, first compound 0.949 µM): 4.66%
viability, T/C (second compound 0.0316 µM, first compound 3 µM): 4.54%
viability, T/C (second compound 0.1 µM, first compound 0.00949 µM): 3.47%
viability, T/C (second compound 0.1 µM, first compound 0.03 µM): 3.41%
viability, T/C (second compound 0.1 µM, first compound 0.0949 µM): 4.81%
viability, T/C (second compound 0.1 µM, first compound 0.3 µM): 3.67%
viability, T/C (second compound 0.1 µM, first compound 0.949 µM): 3.69%
viability, T/C (second compound 0.1 µM, first compound 3 µM): 3.62%
viability, T/C (second compound 0.316 µM, first compound 0.00949 µM): 3.86%
viability, T/C (second compound 0.316 µM, first compound 0.03 µM): 6.04%
viability, T/C (second compound 0.316 µM, first compound 0.0949 µM): 2.84%
viability, T/C (second compound 0.316 µM, first compound 0.3 µM): 2.59%
viability, T/C (second compound 0.316 µM, first compound 0.949 µM): 3.03%
viability, T/C (second compound 0.316 µM, first compound 3 µM): 3.1%
viability, T/C (second compound 1 µM, first compound 0.00949 µM): 4.12%
viability, T/C (second compound 1 µM, first compound 0.03 µM): 2.58%
viability, T/C (second compound 1 µM, first compound 0.0949 µM): 2.94%
viability, T/C (second compound 1 µM, first compound 0.3 µM): 2.39%
viability, T/C (second compound 1 µM, first compound 0.949 µM): 2.12%
viability, T/C (second compound 1 µM, first compound 3 µM): 1.83%

C=C(F)C(=O)N1CCN(c2nc(OCC3CCCN3C)nc3c2CCN(c2cccc4cccc(Cl)c24)C3)CC1CC#N (stereo not given)
viability, T/C (compound 0.0316 µM): 95.2% and 99.4% and 108%
viability, T/C (compound 0.1 µM): 109% and 99.9% and 101%
viability, T/C (compound 0.316 µM): 100% and 102% and 113%
viability, T/C (compound 1 µM): 96.1% and 103% and 109%
viability, T/C (compound 3.16 µM): 94.2% and 103% and 111%
IC50 (curve of compound): > 10000 nM and 5950 nM

C#Cc1c(F)ccc2cc(O)cc(-c3ncc4c(N5CC6CCC(C5)N6)nc(OCC56CCCN5CC(F)C6)nc4c3F)c12 (stereo not given) + CNC(C)C(=O)NC1CN(S(=O)(=O)c2cccc(S(=O)(=O)N3CCC4CCC(C(=O)NC(c5ccccc5)c5ccccc5)N4C(=O)C(NC(=O)C(C)NC)C3)c2)CCC2CCC(C(=O)NC(c3ccccc3)c3ccccc3)N2C1=O
IC50 [1]: < 31.6 nM
IC50 [2]: < 31.6 nM
IC50 [3]: < 31.6 nM
IC50 [4]: < 31.6 nM
IC50 [5]: < 31.6 nM
viability, T/C (second compound 0.01 µM, first compound 0.0316 µM): 8.46%
viability, T/C (second compound 0.01 µM, first compound 0.1 µM): 8.46%
viability, T/C (second compound 0.01 µM, first compound 0.316 µM): 4.34%
viability, T/C (second compound 0.01 µM, first compound 1 µM): 5.01%
viability, T/C (second compound 0.01 µM, first compound 3.16 µM): 4.3%
viability, T/C (second compound 0.01 µM, first compound 10 µM): 1.48%
viability, T/C (second compound 0.0316 µM, first compound 0.0316 µM): 5.72%
viability, T/C (second compound 0.0316 µM, first compound 0.1 µM): 5.7%
viability, T/C (second compound 0.0316 µM, first compound 0.316 µM): 4.82%
viability, T/C (second compound 0.0316 µM, first compound 1 µM): 3.76%
viability, T/C (second compound 0.0316 µM, first compound 3.16 µM): 4.16%
viability, T/C (second compound 0.0316 µM, first compound 10 µM): 0.96%
viability, T/C (second compound 0.1 µM, first compound 0.0316 µM): 4.46%
viability, T/C (second compound 0.1 µM, first compound 0.1 µM): 3.83%
viability, T/C (second compound 0.1 µM, first compound 0.316 µM): 4.97%
viability, T/C (second compound 0.1 µM, first compound 1 µM): 3.85%
viability, T/C (second compound 0.1 µM, first compound 3.16 µM): 3.73%
viability, T/C (second compound 0.1 µM, first compound 10 µM): 0.77%
viability, T/C (second compound 0.316 µM, first compound 0.0316 µM): 2.58%
viability, T/C (second compound 0.316 µM, first compound 0.1 µM): 2.92%
viability, T/C (second compound 0.316 µM, first compound 0.316 µM): 3.31%
viability, T/C (second compound 0.316 µM, first compound 1 µM): 3.63%
viability, T/C (second compound 0.316 µM, first compound 3.16 µM): 2.24%
viability, T/C (second compound 0.316 µM, first compound 10 µM): 1.04%
viability, T/C (second compound 1 µM, first compound 0.0316 µM): 3.75%
viability, T/C (second compound 1 µM, first compound 0.1 µM): 2.83%
viability, T/C (second compound 1 µM, first compound 0.316 µM): 3.86%
viability, T/C (second compound 1 µM, first compound 1 µM): 2.71%
viability, T/C (second compound 1 µM, first compound 3.16 µM): 2.69%
viability, T/C (second compound 1 µM, first compound 10 µM): 1.34%
